For orientation: logP means the decadic logarithm of the partition coefficient of the neutral form, usually between octanol and water.

These results are taken from the OPERA property sets (Mansouri et al. 2018).

Turning to `N#Cc1cc(-c2ccncc2)cnc1NCCCCO`, the logP was 1.93.
In turn, `CCOc1ncc(-c2ccncc2)cc1C#N` displayed a logP of 2.59.
`COCCCNc1ncc(-c2ccncc2)cc1C#N` came in with a logP of 2.03.
For the compound `CC(=O)OCCOc1ccc(-c2ccncc2)cn1`, the logP worked out at 1.92.
Next, `Cc1nc(N2CCNCC2)c(C#N)cc1-c1ccccc1`: 3.15.
On to `CC(O)COc1ncc(-c2ccncc2)cc1C#N` (centres undefined), for which the logP came to 1.65.
Next, `CC(=O)OCCCOc1ccc(-c2ccncc2)cn1`: 2.48.
Next, `CC(=O)OCCNc1ccc(-c2ccncc2)cn1`: 2; `COc1nc(C)c(-c2ccncc2)cc1C#N`: 2.41.
For `CC(=O)OCCNc1ccc(-c2ccncc2)c(C)n1` the value was 2.59; for `O=C(OCCCNc1ccc(-c2ccncc2)cn1)c1ccccc1`, 4.06; for `CCC(=O)OCCNc1ccc(-c2ccncc2)cn1`, 2.47.
As to `Cc1nc(NCCN)c(C#N)cc1-c1ccncc1`, the logP was found to be 1.91.
For `CCC(CO)Nc1ncc(-c2ccncc2)cc1C#N` (centres undefined) the value was 1.04.
